According to patent US7745420B2, “Methods for increasing in vivo efficacy of oligonucleotides and inhibiting inflammation in mammals” (Topigen Pharmaceutique, Inc., priority 2001, dated 2010):
[DAP] = 2,6-diaminopurine base (2-amino-2'-deoxyadenosine) replacing adenine

Columns and labels:
[1] = tested on: lungs/airways; details: in vivo; cited from earlier work
[2] = tested on: human immunodeficiency virus (HIV); details: Balzarini et al. 1987; cited from earlier work
[3] = tested on: common Beta chain of human GM-CSF, IL-3 and IL-5 receptor; assay: Semi-quantitative RT-PCR of common beta chain mRNA in U937 cells treated with antisense; assay type: cell-based; details: compared with AS107 containing adenosine, G3PDH housekeeping gene
Experimental: Experiments were performed to assess whether antisense oligonucleotides described in international application WO 99/66037 (incorporated herein) directed against the common beta sub-unit of the IL-3, IL-5 and GM-CSF receptor, could inhibit the expression and the function of this receptor when modified by replacing adenosine by either 2-amino-2′-deoxyadenosine or inosine. TF-1 and U937 cells express high levels of GM-CSF receptors. In addition, TF-1 cells are dependent on GM-CSF for survival. These cells were cultured in RPMI 1640 supplemented with 10% heat-inactivated fetal calf serum, penicillin, streptomycin and 1-glutamine at 37° C. in 5% CO2 (the TF-1 cells were supplemented with GM-CSF). […] The sequence for 107A-DAP was: 5′-GGGTCTGCDapGCGGGDapTGGT-3′ (SEQ ID NO:21); the sequence for 107A-inosine (107A-I) was: 5′-GGGTCTGCIGCGGGIT GGT-3′ (SEQ ID NO:22). The cells were retrieved and washed 3 times. RNA was then retrieved and the presence of the beta chain of the receptor was assessed by semi-quantitative RT-PCR.

[4] = tested on: common Beta chain of human GM-CSF, IL-3 and IL-5 receptor; assay: Semi-quantitative RT-PCR of common beta chain mRNA in TF-1 cells treated with antisense; assay type: cell-based; details: TF1 cells; compared with AS107 containing adenosine
Experimental: Experiments were performed to assess whether antisense oligonucleotides described in international application WO 99/66037 (incorporated herein) directed against the common beta sub-unit of the IL-3, IL-5 and GM-CSF receptor, could inhibit the expression and the function of this receptor when modified by replacing adenosine by either 2-amino-2′-deoxyadenosine or inosine. TF-1 and U937 cells express high levels of GM-CSF receptors. In addition, TF-1 cells are dependent on GM-CSF for survival. These cells were cultured in RPMI 1640 supplemented with 10% heat-inactivated fetal calf serum, penicillin, streptomycin and 1-glutamine at 37° C. in 5% CO2 (the TF-1 cells were supplemented with GM-CSF). For 12 hours they were either cultured in medium alone or medium with sense (107S: 5′-ACCAT CCCGCTGCAGACCC-3′ (SEQ ID NO:19) or antisense (107A: 5′-GGGTCTGCAGCGGGATGGT-3′; SEQ ID NO:20) oligonucleotides to the common beta sub-unit of the IL-3, IL-5 and GM-CSF receptor. The sequence for 107A-DAP was: 5′-GGGTCTGCDapGCGGGDapTGGT-3′ (SEQ ID NO:21); the sequence for 107A-inosine (107A-I) was: 5′-GGGTCTGCIGCGGGIT GGT-3′ (SEQ ID NO:22). The cells were retrieved and washed 3 times. RNA was then retrieved and the presence of the beta chain of the receptor was assessed by semi-quantitative RT-PCR.

OC[C@H]1O[C@@H](n2cnc3c(O)ncnc32)[C@H](O)[C@@H]1O [inosine]
bronchoconstriction of the lungs/airways compared to adenosine [1]: does not cause bronchoconstriction

Nc1nc(N)c2ncn([C@H]3CC[C@@H](CO)O3)c2n1 [2-amino-2′,3′-dideoxyadenosine]
inhibition of HIV replication in vitro [2]: capable of selectively inhibiting

5′-GGGTCTGCDapGCGGGDapTGGT-3′ (DNA GGGTCTGCNGCGGGNTGGT; DNA, [DAP] at 9, 15, backbone and methylation of C not given here) [AS107-DAP]
blocking the mRNA for the common Beta chain, semi-quantitative PCR [3]: at least equally effective
blocking mRNA expression of the common Beta chain, semi-quantitative PCR [4]: at least equally effective
